In patent publication US12162867B2, “Inhibitors of RNA helicase DHX9 and uses thereof” (ACCENT THERAPEUTICS, INC., priority 2022, dated 2024):

System: circBRIP1 in HCT116 cells
Test: DHX9 circBRIP1 cellular target engagement SYBR Green assay (qPCR)
Assay type: cell-based
Settings: Homo sapiens, HCT-116, circBRIP1, HCT116 cells; SyBr assay (marked ^+); read-out: DHX9 Cellular Target Engagement EC50

| Structure (SMILES) | EC50 [nM] |
| --- | --- |
| CS(=O)(=O)Nc1cc(Br)cc(NC(=O)c2cnn(-c3ncccc3N)c2)c1 [Example 162, 1-(3-aminopyridin-2-yl)-N-(3-bromo-5-(methylsulfonamido)phenyl)-1H-pyrazole-4-carboxamide] | 138 |
| CS(=O)(=O)Nc1cc(Cl)cc(NC(=O)c2cc3cc(F)ccc3s2)c1 [Example 295] | > 10000 |
| CS(=O)(=O)Nc1cc(Br)cc(NC(=O)c2ccc3c(c2)[nH]c(=O)n3Cc2ccccc2)c1 [Example 99, 1-benzyl-N-(3-bromo-5-(methylsulfonamido)phenyl)-2-oxo-2,3-dihydro-1H-benzo[d]imidazole-5-carboxamide] | > 10000 |
| CS(=O)(=O)Nc1cc(Cl)cc(NC(=O)c2cnn(-c3ncccc3OCc3cn[nH]c3)c2)c1 [Example 206] | 1060 |
| Cc1cccn2cc(C(=O)Nc3cc(Cl)cc(NS(C)(=O)=O)c3)cc12 [Example 329] | 4980 |
| Cc1cc(C(=O)Nc2cc(Cl)cc(NS(C)(=O)=O)c2)cn1-c1ncc(F)cn1 [Example 207] | 508 |
| CS(=O)(=O)Nc1cc(Cl)cc(NC(=O)c2cc(-c3ncccc3CC(=O)N3CCCC3)cs2)c1 [Example 383] | 557 |
| COc1ccc(-n2cc(C(=O)Nc3cc(Cl)cc(NS(C)(=O)=O)c3)cn2)nc1 [Example 197] | 2370 |
| Cc1cc(C(=O)Nc2cc(Cl)cc(NS(=O)(=O)C3CC3)c2)cn1-c1ccc(N2CCOCC2)cn1 [Example 247] | 2240 |
| CN1CCC(c2ccc(-n3cc(C(=O)Nc4cc(Cl)cc(NS(C)(=O)=O)c4)cn3)nc2)CC1=O (stereo not drawn) [Example 266] | 1160 |
| CS(=O)(=O)Nc1cc(Cl)cc(NC(=O)c2cnn([C@@H]3CC[C@H]3O)c2)c1 (single isomer, unassigned) [Example 306a] | > 10000 |
| CS(=O)(=O)Nc1cc(Cl)cc(NC(=O)c2cc(N3CCNCC3)cs2)c1 [Example 244] | > 10000 |
| CS(=O)(=O)Nc1cc(Cl)cc(NC(=O)c2cnn(C3CCCC3)c2)c1 [Example 309] | 3730 |
| CS(=O)(=O)Nc1cc(Br)cc(NC(=O)c2cnn(-c3cc(C#N)ccn3)c2)c1 [Example 38] | 933 |
| Cn1cc(C(=O)Nc2cc(Cl)cc(NS(C)(=O)=O)c2)cc1Br [Example 83, 5-bromo-N-(3-chloro-5-(methylsulfonamido)phenyl)-1-methyl-1H-pyrrole-3-carboxamide] | 911 |
| CS(=O)(=O)Nc1cc(Cl)cc(NC(=O)c2cc(-c3cccnc3)cs2)c1 [Example 116, N-(3-chloro-5-(methylsulfonamido)phenyl)-4-(pyridin-3-yl)thiophene-2-carboxamide] | 734 |
| Cc1cccnc1-n1cc(C(=O)Nc2cc(Cl)cc(NS(C)(=O)=O)c2)cn1 [Example 54] | 953 |

Other lines, results leading:

| EC50 [nM] | Structure (SMILES) |
| --- | --- |
| > 10000 | Cn1nc(-c2ccccn2)cc1C(=O)Nc1cc(Cl)cc(NS(C)(=O)=O)c1 [Example 141] |
| 303 | CS(=O)(=O)Nc1cc(Cl)cc(NC(=O)c2cc(-c3ncccc3NC(=O)C3CC3)cs2)c1 [Example 220] |
| 2760 | Cc1cc(C(=O)Nc2cc(Br)cc(NS(C)(=O)=O)c2)cn1C1CCCCC1 [Example 85, N-(3-bromo-5-(methylsulfonamido)phenyl)-1-cyclohexyl-5-methyl-1H-pyrrole-3-carboxamide] |
| > 10000 | Cn1nc(C(=O)Nc2cc(Cl)cc(NS(C)(=O)=O)c2)cc1-c1ccccn1 [Example 140] |
| 37.5 | Cn1cc(C(=O)Nc2cc(Cl)cc(NS(C)(=O)=O)c2)cc1-c1ccc(N2CCOCC2)cn1 [Example 273] |
| 5490 | CS(=O)(=O)Nc1cc(Br)cc(NC(=O)c2cc(Cc3ccc[nH]3)cs2)c1 [Example 104, 4-((1H-pyrrol-2-yl)methyl)-N-(3-bromo-5-(methylsulfonamido)phenyl)-thiophene-2-carboxamide] |
| 12300 | Cc1ccc(C(=O)Nc2cc(Br)cc(NS(C)(=O)=O)c2)cc1-n1cccn1 [Example 10] |
| 241 | COc1cccc2sc(C(=O)Nc3cc(Cl)cc(NS(C)(=O)=O)c3)cc12 [Example 321] |
| 1460 | CS(=O)(=O)Nc1cc(Cl)cc(NC(=O)c2cnn(-c3ncccc3OCc3cncnc3)c2)c1 [Example 188] |
| 640 | CS(=O)(=O)Nc1cc(Cl)cc(NC(=O)c2cc(-c3ncccc3CC(=O)N3CCC3)cs2)c1 [Example 382] |
| 6410 | CC(C)(C)OC(=O)N1CCC(n2cc(C(=O)Nc3cc(Cl)cc(NS(C)(=O)=O)c3)cn2)CC1 [Example 136] |
| 289 | CN(c1ncccn1)c1cccnc1-c1csc(C(=O)Nc2cc(Cl)cc(NS(C)(=O)=O)c2)c1 [Example 238] |
| > 10000 | CS(=O)(=O)Nc1cc(Cl)cc(NC(=O)c2cc3cc(Cl)ccc3s2)c1 [Example 298] |
| 8320 | CCS(=O)(=O)Nc1cc(F)cc(NC(=O)c2cc(-c3ccccc3)cs2)c1 [Example 74] |
| 1290 | Cc1cccnc1-c1csc(C(=O)Nc2cc(Br)cc(NS(C)(=N)=O)c2)c1 (stereo not drawn) [Example 122] |
| 1880 | Cc1cc(C(=O)Nc2cc(Cl)cc(NS(C)(=O)=O)c2)cn1C1CCCC1 [Example 282] |
| 1530 | Cc1cnc(-n2cc(C(=O)Nc3cc(Cl)cc(NS(C)(=O)=O)c3)cn2)c(OCc2cnco2)c1 [Example 261] |
| 1790 | CS(=O)(=O)Nc1cc(Cl)cc(NC(=O)c2cnn(-c3ncccc3OCc3ncc[nH]3)c2)c1 [Example 252] |
| 661 | CS(=O)(=O)Nc1cc(Cl)cc(NC(=O)c2cnn(-c3ncccc3OCc3ccc(F)cc3)c2)c1 [Example 69] |

Same assay, conditions: Homo sapiens, HCT-116, circBRIP1, HCT116 cells; ^+ SyBr assay was used; read-out: DHX9 Cellular Target Engagement EC50

| Structure (SMILES) | EC50 [nM] |
| --- | --- |
| Cc1sc(C(=O)Nc2cc(Cl)cc(NS(C)(=O)=O)c2)cc1-c1cn(C2CCOCC2)nn1 [Example 692] | 142 |
| Cc1sc(C(=O)Nc2cc(Cl)cc(NS(C)(=O)=O)c2)cc1-n1cc(F)cn1 [Example 439] | 199 |
| CS(=O)(=O)Nc1cc(Cl)cc(NC(=O)c2cc(Cl)n(-c3ncc(F)cn3)c2)c1 [Example 709] | 1240 |
| Cc1sc(C(=O)Nc2cc(Cl)cc(NS(C)(=O)=O)c2)cc1-c1ncc(F)cc1-c1ccn(C)c(=O)c1 [Example 605] | 5330 |
| CS(=O)(=O)Nc1cc(Cl)cc(NC(=O)c2cc(C(=O)N3CC4(CNC4)C3)n(-c3ccccn3)c2)c1 [Example 643] | > 10000 |

The remaining lines, values ahead:

| EC50 [nM] | Structure (SMILES) |
| --- | --- |
| 769 | Cc1sc(C(=O)Nc2cc(Cl)cc(NS(C)(=O)=O)c2)cc1N1C(=O)N(c2ccccn2)C(C)(C)C1=O [Example 685] |
| 425 | CSc1cnc(-n2cc(C(=O)Nc3cc(Cl)cc(NS(C)(=O)=O)c3)cc2C)nc1 [Example 658] |
| 133 | COc1cc(F)cnc1-n1cc(C(=O)Nc2cc(Cl)cc(NS(C)(=O)=O)c2)cc1C [Example 393] |
| 96.1 | Cc1cc(C(=O)Nc2cc(Cl)cc(NS(C)(=O)=O)c2)cn1-c1ncc(N2CCOCC2)cc1F [Example 412] |
| 305 | CS(=O)(=O)Nc1cc(Cl)cc(NC(=O)c2cnn(-c3ncccc3Oc3cccc(F)c3)c2)c1 [Example 427] |
| 1150 | COc1cnn(-c2csc(C(=O)Nc3cc(Cl)cc(NS(C)(=O)=O)c3)c2)c1 [Example 435] |

Same assay, conditions: Homo sapiens, HCT-116, read-out: DHX9 Cellular Target Engagement EC50

| Structure (SMILES) | EC50 [nM] |
| --- | --- |
| CS(=O)(=O)Nc1cc(Cl)cc(NC(=O)c2cnn(-c3ncccc3COc3ccccc3)c2)c1 [Example 167, N-(3-chloro-5-(methylsulfonamido)phenyl)-1-(3-(phenoxymethyl)pyridin-2-yl)-1H-pyrazole-4-carboxamide] | 1750 |
